Like-named read-outs stand apart in the source and are kept apart here.
System: primary neuronal cultures from embryonic rat brains
Assay: Rat oscillation assay (FLIPR, neuronal calcium oscillations)
Assay type: cell-based
Conditions: Rattus norvegicus
Summary of the method: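 Cortical neurons from E18 Wistar rat embryos, cultured 8–10 days at high density, loaded with 1 μM Fluo-8 AM; calcium oscillations recorded by FLIPR once per second in Mg-free HBSS with 2 mM CaCl2, 20 mM HEPES, pH 7.4. Two acquisitions ("Acute", 500 sec, compound added at 250 sec; "20 min"), ± Kv7 blocker XE-991.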

[1] = 20 min, AUC of fluorescence measured 20 min after compound addition, read-out: FLIPR: IC50 [nM] 20 min
[2] = Acute phase, ratio of AUC fluorescence before and after compound addition, read-out: FLIPR: IC50 [nM] acute

**Q.** For O=C(NCc1cccc(OC(F)F)c1)NC1CC2(CCC2)C1 [Example 13, 1-(3-Difluoromethoxy-benzyl)-3-spiro[3.3]hept-2-yl-urea], which IC50 [1] is on record?
**A.** 133 nM

**Q.** And the IC50 [2]?
**A.** 88 nM

**Q.** What does the source list for O=C(NCc1cccc(OCC(F)(F)F)c1)NC1CC2(CCC2)C1 [Example 14, 1-Spiro[3.3]hept-2-yl-3-[3-(2,2,2-trifluoro-ethoxy)-benzyl]-urea]?
**A.** IC50 [1]: 27 nM; IC50 [2]: 31 nM

**Q.** For O=C(NCc1cccc(C(F)F)c1)NC1CC2(CCC2)C1 [Example 15, 1-(3-Difluoromethyl-benzyl)-3-spiro[3.3]hept-2-yl-urea], which IC50 [1] is on record?
**A.** 126 nM

**Q.** What about the IC50 [2] of the same molecule?
**A.** 124 nM

**Q.** O=C(NCc1cc(C(F)(F)F)ccc1F)NC1CC2(CCC2)C1 [Example 16, 1-(2-Fluoro-5-trifluoromethyl-benzyl)-3-spiro[3.3]hept-2-yl-urea] was tested. Which IC50 [1] did it give?
**A.** 196 nM

**Q.** What about the IC50 [2] of the same molecule?
**A.** 224 nM

**Q.** For O=C(NCc1ccc(F)c(C(F)(F)F)c1)NC1CC2(CCC2)C1 [Example 17, 1-(4-Fluoro-3-trifluoromethyl-benzyl)-3-spiro[3.3]hept-2-yl-urea], which IC50 [1] is on record?
**A.** 145 nM

**Q.** And the IC50 [2]?
**A.** 141 nM

**Q.** O=C(NCc1cc(F)cc(C(F)(F)F)c1)NC1CC2(CCC2)C1 [Example 18, 1-(3-Fluoro-5-trifluoromethyl-benzyl)-3-spiro[3.3]hept-2-yl-urea] was tested. Which IC50 [1] did it give?
**A.** 65 nM

**Q.** What about the IC50 [2] of the same molecule?
**A.** 109 nM

**Q.** COc1c(CNC(=O)NC2CC3(CCC3)C2)cccc1C(F)(F)F [Example 22, 1-(2-Methoxy-3-trifluoromethyl-benzyl)-3-spiro[3.3]hept-2-yl-urea] was tested. Which IC50 [1] did it give?
**A.** 268 nM

**Q.** And the IC50 [2]?
**A.** 275 nM

**Q.** How did the IC50 [1] turn out when O=C(NCc1cccc(S(F)(F)(F)(F)F)c1)NC1CC2(CCC2)C1 [Example 35, 1-(3-(pentafluoro-λ^6-sulfaneyl)benzyl)-3-(spiro[3.3]heptan-2-yl)urea] was run?
**A.** 24 nM

**Q.** And the IC50 [2]?
**A.** 22 nM

**Q.** With O=C(NCc1cc(C(F)(F)F)ccc1O)NC1CC2(CCC2)C1 [Example 38, 1-(2-Hydroxy-5-trifluoromethyl-benzyl)-3-spiro[3.3]hept-2-yl-urea] as the molecule, how does the IC50 [1] read?
**A.** 330 nM

**Q.** What about the IC50 [2] of the same molecule?
**A.** 627 nM

**Q.** For O=C(NCc1cccc(OC(F)(F)F)c1)NC1CC2(CCC2)C1 [Example 41, 1-Spiro[3.3]hept-2-yl-3-(3-trifluoromethoxy-benzyl)-urea], which IC50 [1] is on record?
**A.** 25 nM

**Q.** And the IC50 [2]?
**A.** 44 nM

**Q.** For O=C(NCc1cccc(S(=O)(=O)C(F)(F)F)c1)NC1CC2(CCC2)C1 [Example 42, 1-Spiro[3.3]hept-2-yl-3-(3-trifluoromethanesulfonyl-benzyl)-urea], which IC50 [1] is on record?
**A.** 22 nM

**Q.** And the IC50 [2]?
**A.** 27 nM

**Q.** Which results are given for O=C(NCc1cccc(COC(F)(F)F)c1)NC1CC2(CCC2)C1 [Example 43, 1-Spiro[3.3]hept-2-yl-3-(3-trifluoromethoxymethyl-benzyl)-urea]?
**A.** IC50 [1]: 22 nM; IC50 [2]: 16 nM

**Q.** O=C(NC1CC2(CCC2)C1)NC1(c2cccc(C(F)(F)F)c2)COC1 [Example 44, 1-Spiro[3.3]hept-2-yl-3-[3-(3-trifluoromethyl-phenyl)-oxetan-3-yl]-urea] was tested. Which IC50 [1] did it give?
**A.** 100 nM

**Q.** And the IC50 [2]?
**A.** 78 nM

**Q.** O=C(NCc1cccc2c1OC(F)(F)O2)NC1CC2(CCC2)C1 [Example 46, 1-(2,2-Difluoro-benzo[1,3]dioxol-4-ylmethyl)-3-spiro[3.3]hept-2-yl-urea] was tested. Which IC50 [1] did it give?
**A.** 285 nM

**Q.** And the IC50 [2]?
**A.** 234 nM

**Q.** For O=C(NC1CC2(CCC2)C1)NC1(c2ccnc(OCC(F)(F)F)c2)CCOCC1 [Example 49, 1-Spiro[3.3]hept-2-yl-3-{4-[2-(2,2,2-trifluoro-ethoxy)-pyridin-4-yl]-tetrahydro-pyran-4-yl}-urea], which IC50 [1] is on record?
**A.** 1530 nM

**Q.** And the IC50 [2]?
**A.** 680 nM

**Q.** With O=C(NC1CC2(CCC2)C1)NC1(c2ccnc(OC(F)F)c2)CCC1 [Example 51, 1-[1-(2-Difluoromethoxy-pyridin-4-yl)-cyclobutyl]-3-spiro[3.3]hept-2-yl-urea] as the molecule, how does the IC50 [1] read?
**A.** 65 nM

**Q.** What about the IC50 [2] of the same molecule?
**A.** 80 nM

**Q.** For CC(C)(NC(=O)NC1CC2(CCC2)C1)c1ccnc(OC(F)F)c1 [Example 52, 1-[1-(2-Difluoromethoxy-pyridin-4-yl)-1-methyl-ethyl]-3-spiro[3.3]hept-2-yl-urea], which IC50 [1] is on record?
**A.** 143 nM

**Q.** And the IC50 [2]?
**A.** 72 nM

**Q.** What does the source list for O=C(NC1CC2(CCC2)C1)N1CCc2c(ccnc2OCC(F)(F)F)C1 [Example 53, 5-(2,2,2-Trifluoro-ethoxy)-3,4-dihydro-1H-[2,6]naphthyridine-2-carboxylic acid spiro[3.3]hept-2-ylamide]?
**A.** IC50 [1]: 226 nM; IC50 [2]: 185 nM

**Q.** What does the source list for N#CC(NC(=O)NC1CC2(CCC2)C1)c1cccc(C(F)(F)F)c1 (centres unmarked) [Example 55, 1-[Cyano-(3-trifluoromethyl-phenyl)-methyl]-3-spiro[3.3]hept-2-yl-urea]?
**A.** IC50 [1]: 48 nM; IC50 [2]: 67 nM

**Q.** For O=C(NC1CC2(CCC2)C1)NC(c1cccc(C(F)(F)F)c1)c1nc[nH]n1 (centres unmarked) [Example 56, 1-Spiro[3.3]hept-2-yl-3-[(1H-[1,2,4]triazol-3-yl)-(3-trifluoromethyl-phenyl)-methyl]-urea], which IC50 [1] is on record?
**A.** 9.7 nM

**Q.** And the IC50 [2]?
**A.** 27 nM

**Q.** Which results are given for O=C(NC1CC2(CCC2)C1)NC(c1cccc(C(F)(F)F)c1)C(F)F (centres unmarked) [Example 57, 1-[2,2-Difluoro-1-(3-trifluoromethyl-phenyl)-ethyl]-3-spiro[3.3]hept-2-yl-urea]?
**A.** IC50 [1]: 2.3 nM; IC50 [2]: 2.9 nM

**Q.** How did the IC50 [1] turn out when O=C(NC1CC2(CCC2)C1)NC(c1cccc(C(F)(F)F)c1)C(F)(F)F (centres unmarked) [Example 58, 1-Spiro[3.3]hept-2-yl-3-[2,2,2-trifluoro-1-(3-trifluoromethyl-phenyl)-ethyl]-urea] was run?
**A.** 16 nM

**Q.** What about the IC50 [2] of the same molecule?
**A.** 20 nM

**Q.** O=C(NCc1ccnc(OCC(F)(F)F)n1)NC1CC2(CCC2)C1 [Example 70, 1-Spiro[3.3]hept-2-yl-3-[2-(2,2,2-trifluoro-ethoxy)-pyrimidin-4-ylmethyl]-urea] was tested. Which IC50 [1] did it give?
**A.** 546 nM

**Q.** And the IC50 [2]?
**A.** 219 nM

**Q.** Which IC50 [1] does the source give for O=C(NCc1ccnc(OC(F)(F)F)c1)NC1CC2(CCC2)C1 [Example 96, 1-Spiro[3.3]hept-2-yl-3-(2-trifluoromethoxy-pyridin-4-ylmethyl)-urea] here?
**A.** 61 nM

**Q.** And the IC50 [2]?
**A.** 82 nM

**Q.** Which results are given for CC(NC(=O)NC1CC2(CCC2)C1)c1ccnc(OC(C)C(F)(F)F)c1 (centres unmarked) [Example 101, 1-(Spiro[3.3]heptan-2-yl)-3-(1-(2-((1,1,1-trifluoropropan-2-yl)oxy)pyridin-4-yl)ethyl)urea]?
**A.** IC50 [1]: 1.6 nM; IC50 [2]: 2.4 nM

**Q.** How did the IC50 [1] turn out when CC(NC(=O)NC1CC2(CCC2)C1)c1cccc(OC(C)C(F)(F)F)c1 (centres unmarked) [Example 102, 1-(Spiro[3.3]heptan-2-yl)-3-(1-(3-((1,1,1-trifluoropropan-2-yl)oxy)phenyl)ethyl)urea] was run?
**A.** 0.5 nM

**Q.** What about the IC50 [2] of the same molecule?
**A.** 2.8 nM

**Q.** Which IC50 [1] does the source give for Cc1ccc(CNC(=O)NC2CC3(CCC3)C2)nc1OCC(F)(F)F [Example 108, 1-[5-Methyl-6-(2,2,2-trifluoro-ethoxy)-pyridin-2-ylmethyl]-3-spiro[3.3]hept-2-yl-urea] here?
**A.** 279 nM

**Q.** What about the IC50 [2] of the same molecule?
**A.** 205 nM

**Q.** For Cc1ccc(CNC(=O)NC2CC3(CCC3)C2)cc1OCC(F)(F)F [Example 109, 1-[4-Methyl-3-(2,2,2-trifluoro-ethoxy)-benzyl]-3-spiro[3.3]hept-2-yl-urea], which IC50 [1] is on record?
**A.** 262 nM

**Q.** And the IC50 [2]?
**A.** 200 nM

**Q.** How did the IC50 [1] turn out when O=C(NCc1nccc(OCC(F)(F)F)n1)NC1CC2(CCC2)C1 [Example 112, 1-Spiro[3.3]hept-2-yl-3-[4-(2,2,2-trifluoro-ethoxy)-pyrimidin-2-ylmethyl]-urea] was run?
**A.** 1420 nM

**Q.** What about the IC50 [2] of the same molecule?
**A.** 1100 nM

**Q.** What does the source list for O=C(NCc1ccc(F)c(OCC(F)(F)F)c1)NC1CC2(CCC2)C1 [Example 114, 1-[4-Fluoro-3-(2,2,2-trifluoro-ethoxy)-benzyl]-3-spiro[3.3]hept-2-yl-urea]?
**A.** IC50 [1]: 61 nM; IC50 [2]: 107 nM

**Q.** Which IC50 [1] does the source give for CN(CC(F)(F)F)c1cc(CNC(=O)NC2CC3(CCC3)C2)ccn1 [Example 115, 1-{2-[Methyl-(2,2,2-trifluoro-ethyl)-amino]-pyridin-4-ylmethyl}-3-spiro[3.3]hept-2-yl-urea] here?
**A.** 241 nM

**Q.** What about the IC50 [2] of the same molecule?
**A.** 185 nM

**Q.** How did the IC50 [1] turn out when CC(NC(=O)NC1CC2(CCC2)C1)c1cccc(OC(F)(F)F)c1 (centres unmarked) [Example 119, 1-Spiro[3.3]hept-2-yl-3-[1-(3-trifluoromethoxy-phenyl)-ethyl]-urea] was run?
**A.** 12 nM

**Q.** What about the IC50 [2] of the same molecule?
**A.** 10 nM

**Q.** For COc1ccc(C(F)(F)F)cc1CNC(=O)NC1CC2(CC2)C1 [Example 125, 1-(2-Methoxy-5-trifluoromethyl-benzyl)-3-spiro[2.3]hex-5-yl-urea], which IC50 [1] is on record?
**A.** 1990 nM

**Q.** What about the IC50 [2] of the same molecule?
**A.** 1820 nM

**Q.** With O=C(NCc1nccc(OCC(F)(F)F)n1)NC1CC2(CC2)C1 [Example 126, 1-Spiro[2.3]hex-5-yl-3-[4-(2,2,2-trifluoro-ethoxy)-pyrimidin-2-ylmethyl]-urea] as the molecule, how does the IC50 [1] read?
**A.** 7620 nM

**Q.** And the IC50 [2]?
**A.** 4960 nM

**Q.** What does the source list for COc1c(CNC(=O)NC2CC3(CC3)C2)cccc1C(F)(F)F [Example 128, 1-(2-Methoxy-3-trifluoromethyl-benzyl)-3-spiro[2.3]hex-5-yl-urea]?
**A.** IC50 [1]: 950 nM; IC50 [2]: 981 nM

**Q.** With O=C(NCc1cccc(S(F)(F)(F)(F)F)c1)NC1CC2(CC2)C1 [Example 130, 1-(3-(pentafluoro-λ^6-sulfaneyl)benzyl)-3-(spiro[2.3]hexan-5-yl)urea] as the molecule, how does the IC50 [1] read?
**A.** 42 nM

**Q.** And the IC50 [2]?
**A.** 30 nM

**Q.** With O=C(NCc1cccc(OC(F)(F)F)c1F)NC1CC2(CC2)C1 [Example 134, 1-(2-Fluoro-3-trifluoromethoxy-benzyl)-3-spiro[2.3]hex-5-yl-urea] as the molecule, how does the IC50 [1] read?
**A.** 82 nM

**Q.** What about the IC50 [2] of the same molecule?
**A.** 63 nM

**Q.** Which results are given for O=C(NC1CC2(CC2)C1)NC1(c2cccc(OC(F)F)c2)CC1 [Example 136, 1-[1-(3-Difluoromethoxy-phenyl)-cyclopropyl]-3-spiro[2.3]hex-5-yl-urea]?
**A.** IC50 [1]: 386 nM; IC50 [2]: 334 nM

**Q.** Which results are given for O=C(NCc1cc(F)cc(C(F)(F)F)c1)NC1CC2(CC2)C1 [Example 142, 1-(3-Fluoro-5-trifluoromethyl-benzyl)-3-spiro[2.3]hex-5-yl-urea]?
**A.** IC50 [1]: 277 nM; IC50 [2]: 204 nM

**Q.** With O=C(NCc1ccc(F)c(C(F)(F)F)c1)NC1CC2(CC2)C1 [Example 148, 1-(4-Fluoro-3-trifluoromethyl-benzyl)-3-spiro[2.3]hex-5-yl-urea] as the molecule, how does the IC50 [1] read?
**A.** 355 nM

**Q.** What about the IC50 [2] of the same molecule?
**A.** 312 nM

From patent US20230136562A1, “SPIROUREA DERIVATIVES” (Idorsia Pharmaceuticals Ltd, priority 2020, published 2023)
